Results reported in patent US20170182049A1, “NOVEL THERAPEUTICS FOR BRAIN CANCER” (The Regents of the University of California, priority 2012, published 2017).
“Also recorded” adds a separate entry of the source. Values belong to the molecule of their own block, whether it stands above or below them.

Legend:
[1] = test system: normal human astrocytes (NHA); experiment: primary astrocyte viability (Alamar Blue); format: cell-based; conditions: for IC50, primary astrocyte viability: astrocytes express low amounts of Olig2
Experimental: (§1) Culture and assay system: Ink4a/arfEGFR-VIII mouse cells and U87 human GBM cells were cultured in DMEM medium with 10% FBS. GBM4 and GBM8 patient-derived tumor neurosphere lines were cultured in stem cell medium supplemented with FGF and EGF. Primary normal human astrocytes (NHA) were cultured in astrocyte medium (Life Technologies, Grand Island N.Y.) with EGF. Cytotoxicity of the compounds was assessed by […] (MTT) reduction assay (for Ink4a/arfEGFR-VIII cells) as described earlier (Rajesh M et al., Journal of the American Chemical Society 129:11408-11420 (2007)) or by Alamar Blue assay (for all other cell types). For the MTT reduction assay, Ink4a/arfEGFR-VIII cells were grown in 96-well plates at a concentration of ˜2000 cells per well overnight and all assays were conducted in DMEM medium with 10% FBS and additives. For studies with inhibitor compounds, 10 mM stocks were serially diluted in dimethyl sulfoxide and further diluted into culture media to give appropriate concentrations while minimizing precipitation associated with serial dilutions in medium alone. Inhibitors were added to cells and left in the media for 72 hours. Cell viability for Ink4a/arfEGFR VIII cells was quantified at 540 nm after the addition of MTT (Sigma-Aldrich). Results were expressed as: […]
(§2) For GBM4, GBM8, U87, and NHA cell lines, viability was quantified by Alamar Blue Assay. In this assay, cells were treated with inhibitor compounds as described and Alamar Blue added after 72 hours. Emission values at 590 nm were measured after the addition of Alamar Blue. Dose-response curves for MTT assays and Alamar Blue Assays were plotted and IC50 values were calculated by using GraphPad Prism (GraphPad Prism Software, Inc., La Jolla, Calif.).

[2] = test system: p21; experiment: expression of p21, direct genetic target of OLIG2 (qPCR); format: cell-based, human
From the text: (§3) FIGS. 17A-17B. OLIG2 inhibitor affects expression of direct genetic targets of OLIG2. […] (FIG. 17A) Escalating OLIG2 inhibitor doses led to increased levels of p21.
(§4) mRNA was extracted from different cell lines with the AllPrep DNA/RNA Mini Kit (Qiagen, Inc.), followed by cDNA synthesis using the iScript cDNA Synthesis Kit (Bio-Rad, Inc). To investigate single-gene expression patterns, individual gene primers were purchased from Allele Biotechnology and Pharmaceuticals Inc. SYBR Green Real Time PCR master mixes were purchased from Roche Corporation. qPCR was performed with primers specific for OLIG2, p21, and OMG genes. Individual gene expression was normalized to expression of beta-Actin. Histograms show mean and standard error of the mean (SEM) from three separate experiments.

[3] = test system: OMG; experiment: expression of OMG, direct genetic target of OLIG2 (qPCR); format: cell-based, human
From the text: as §3, §4

[4] = test system: U87 human GBM cells; experiment: U87 viability (Alamar Blue); format: cell-based; conditions: for IC50, U87 viability: U87 express low amounts of Olig2
Experimental: as §1, §2

[5] = test system: GBM4 neurospheres; experiment: GBM4 neurosphere formation, light microscopy; format: cell-based, human; conditions: 0.1 uM and 5 uM, 72 h
[6] = test system: GBM8 cells; experiment: GBM8 neurosphere viability (Alamar Blue); format: cell-based, human; conditions: grown as neurospheres, inhibitor given alone
Experimental: as §1, with “For studies with inhibitor compounds, 10 mM stocks were serially diluted in dimethyl sulfoxide and further diluted into culture media to give appropriate concentrations while minimizing precipitation associated with serial dilutions in medium alone. Inhibitors were added to cells and left in the media for 72 hours.” left out
as §2, with “In this assay, cells were treated with inhibitor compounds as described and Alamar Blue added after 72 hours.” left out

[7] = test system: GBM4 cells; experiment: GBM4 neurosphere viability (Alamar Blue); format: cell-based, human; conditions: grown as neurospheres, inhibitor given alone
Experimental: as §1, with “For studies with inhibitor compounds, 10 mM stocks were serially diluted in dimethyl sulfoxide and further diluted into culture media to give appropriate concentrations while minimizing precipitation associated with serial dilutions in medium alone. Inhibitors were added to cells and left in the media for 72 hours.” left out
as §2, with “In this assay, cells were treated with inhibitor compounds as described and Alamar Blue added after 72 hours.” left out

[8] = GBM4 cells, escalating doses (18 h in FIG. 17)

IC50, U87 viability [4]: high
SMILES: CCN1CCCC(Nc2cc(C)nc(NC(=N)Nc3ccc(Cl)c(Cl)c3)n2)C1 (stereo not shown) [SKOG-101]
IC50, primary astrocyte viability [1]: high | P21 levels ([2]; FIG. 6, relative to vehicle control): rose markedly | levels of OMG ([3]; FIG. 7, relative to vehicle control): went down markedly

IC50, U87 viability [4]: high
SMILES: CCN1CCCC(Nc2cc(C)nc(NC(=N)Nc3ccc(Cl)c(Cl)c3)n2)C1 (stereo not shown) [SKOG-102]
IC50 of NHA relative to GBM4 cells ([1]; NHA vs GBM4): ~20 fold | IC50, primary astrocyte viability [1]: high | expression of p21 [2, 8]: increased in a dose-dependent manner | inhibition of neurosphere formation in GBM4 cells (active / inactive compound) [5]: active | expression of OMG [3, 8]: suppressed; also recorded: decline | suppression of GBM8 cells [6]: markedly suppressed; also recorded: active | suppression of GBM4 cells [7]: markedly suppressed; also recorded: active | suppression of U87 cells ([4]; compared with GBM4/8 cells): a higher dose was needed
